{
  "source": "patent US20050004044A1",
  "about": "“Use of orsaponin [3beta, 16beta, 17 alpha-trihydroxycholost-5-en-22-one 16-0-(2-0-4-methoxybenzoyl-beta-D-xylopyranosyl)-(1->3)-(2-0-acetyl-alpha-L-arabinopyranoside)] or OSW-1 and its derivatives for cancer therapeutics” (priority 2003, published 2005)",
  "key": {"Raji cells (lymphoma)": {"tested_on": "Raji cells (lymphoma)", "experiment": "MTT cell growth inhibition, Raji", "assay_type": "cell-based, human", "settings": "72 h", "procedure": "FIG. 2. Effect of Orsaponin (OSW-1) on cell growth in two human cancer cell lines including a leukemia and a lymphoma cell line. HL-60 (leukemia) and Raji cells (lymphoma) in exponentially growing phase were treated with the indicated concentrations of OSW-1 for 72 hours. Cell growth inhibition was measured by MTT assay.\nCells and Cell Lines. Various cancer cell lines were used including the human leukemia cell lines HL-60 and ML-1 cells; human lymphoma cell line Raji; human pancreatic cancer cells AsPC-1; and human ovarian cancer cells SKOV3; human colon cancer cells HCT116; as well as isolated CLL cells from patients; and lymphocytes from normal donors. Cells were grown and maintained as per protocols known in the art using appropriate cell culture media and supplements.\n(§1) 1. MTT Assays. For these assays either cancer cell lines were used. […] After the indicated number of days (usually 3 days or 72 hours) of exposure to OSW-1, cell survival was assessed by the addition of the MTT dye to the wells. […] Survival of cells under orsaponin treatment was evaluated as a percentage of control cell growth. […]\nAnticancer activities of Orsaponin and 17-deoxyorsaponin were examined in human leukemia cells (ML-1) and human lymphoma cells (Raji). Cells were incubated with various concentrations of Orsaponin and 17-deoxyorsaponin for 72 h, and cell growth inhibition was measured by MTT assay."}, "[1]": {"tested_on": "HCT116 p53+/+ colon cancer cells", "experiment": "Colony formation assay, HCT116 p53+/+", "assay_type": "cell-based, human", "procedure": "FIG. 6. Effect of OSW-1 on cell survival in human colon carcinoma cells. Human colon cancer cells with wild-type p53 (HCT116 p53+/+) and p53-null (HCT116 p53−/−) were treated with the indicated concentrations of OSW-1, and cell survival was measured by colony formation assay.\nOSW-1 Inhibits Growth of Human Colon Cancer Cells. […] The HCT116 colon cancer cells with wild-type p53 (p53+/+) and p53-null (p53−/−) were treated with the various concentrations of orsaponin (OSW-1), and cell survival was measured by colony formation assay."}, "[2]": {"tested_on": "normal human astrocytes (immortalized with hTER)", "experiment": "MTT cell growth inhibition, normal astrocytes", "assay_type": "cell-based", "settings": "Astrocyte, 72 h", "procedure": "1. MTT Assays. For these assays either cancer cell lines were used. Alternatively, mononuclear cells from peripheral blood samples of CLL patients or normal donors were separated by Ficoll Hipaque fractionation and resuspended in DMEM complete medium. Malignant cells from various human cell lines (usually at 5×10^4 cells/ml) or mononuclear cells from peripheral blood of leukemia patients and healthy donors (1×10^6 cells/ml) were incubated in either αMEM or RPMI 1640 with or without various concentrations of OSW-1 in the range of 0-10 nM. Each experimental condition was done in triplicate. After the indicated number of days (usually 3 days or 72 hours) of exposure to OSW-1, cell survival was assessed by the addition of the MTT dye to the wells. The MTT dye changes its color depending on the presence of live cells in the well. Survival of cells under orsaponin treatment was evaluated as a percentage of control cell growth. Alternatively, one can also use the dye trypan-blue which penetrates dead cells thereby allowing one to count live cells under the microscope and estimating percentage survival.\nTo test the therapeutic selectivity of Orsaponin and 17-deoxyorsaponin, their effect on human brain tumor cells (U87 malignant glioma) and normal human astrocytes were compared. […] Cell growth inhibition was measured by MTT assay (FIG. 21)."}, "[3]": {"experiment": "5-day intravenous toxicity study in mice", "assay_type": "in vivo, ICR mice", "settings": "for Early Deaths: 15 dosed; for NOAEL at 5 days: ICR", "procedure": "To assess the toxicity of orsaponin of the present invention, a 5-day intravenous study with Orsaponin in mice was conducted. […] Five mice from each group were scheduled to be sacrificed 3, 14, and 42 days after the last dose was administered.\nTissues (liver with gall bladder, kidneys, heart with aorta, lungs, spleen, skeletal muscle, brain, pituitary gland, eyes, pancreas, stomach, duodenum, jejunum, ileum, cecum, colon, mesenteric lymph node, salivary gland, mandibular lymph node, thymus, adrenal glands, larynx/pharynx/tongue, thyroid gland, parathyroid, trachea, esophagus, skin, mammary gland (females only), prostate, seminal vesicles, urinary bladder, testes, epididymides, ovary, uterus, cervix, femur/knee joint, sternum, bone marrow, and gross lesions) were processed for microscopic evaluation.\nIndividual animal organ weight was also measured. Calculation of percent of control using the relative weight of the individual organs per 100 grams of the terminal body weight (TBW) is included below in Tables 8 and 9. A change of greater than 20% difference was considered toxicologically important, and/or a clear dose response relationship."}, "[4]": {"tested_on": "ovarian cancer SKOV3 cells", "experiment": "MTT cell growth inhibition, SKOV3", "assay_type": "cell-based", "settings": "Homo sapiens, SK-OV-3, SKOV3, 72 h", "procedure": "FIG. 5. Effect of Orsaponin (OSW-1) on cell growth in human ovarian cancer cells (SKOV3). Human ovarian cancer SKOV3 cells were treated with the indicated concentrations of OSW-1 for 72 h. Cell growth inhibition was measured by the MTT assay. The IC50 value is approximately 0.2 nM under the experimental conditions.\nas §1, with “used. Alternatively, mononuclear cells from peripheral blood samples of CLL patients or normal donors were separated by Ficoll Hipaque fractionation and resuspended in DMEM complete medium.” for “used.”\nOSW-1 Inhibits Growth of Ovarian Cancer Cells. […] Human ovarian cancer SKOV3 cells were treated with 0-10 nM OSW-1 for 72 h and cell growth inhibition was measured by the MTT assay.\nThe effect of 17-deoxyorsaponin in human ovarian cancer cells was determined. […] Cell growth inhibition was measured by MTT assay (FIG. 17). […] ML-1 leukemia cells were incubated with various concentrations of 17-deoxyorsaponin for 72 h and cell growth inhibition was measured using the MTT assay (FIG. 18)."}, "[5]": {"settings": "male mice, early deaths day 4, individual animals, listed as Orsaponin"}},
  "note": "Several values for one entry are separate records, joined by “and”; a condition that tells them apart may be missing. Equal values may be shown once. Read-outs that look alike come from different tables or passages of the source.",
  "data": [
    {"smiles": "COc1ccc(C(=O)OC2C(OC3C(O)COC(O[C@H]4C[C@H]5[C@@H]6CC=C7C[C@@H](O)CC[C@]7(C)[C@H]6CC[C@]5(C)[C@@]4(O)[C@H](C)C(=O)CCC(C)C)C3OC(C)=O)OCC(O)C2O)cc1", "note": "(stereo partly drawn) [OSW-1, 3β, 16β, 17 α-trihydroxycholost-5-en-22-one 16-O-(2-O-4-methoxybenzoyl-β-D-xylopyranosyl)-(1->3)-(2-O-acetyl-α-L-arabinopyranoside)]", "values": [
      {"measurement": "IC50", "setting": "Raji cells (lymphoma)", "value": "< 0.5", "unit": "nM"},
      {"measurement": "cell survival, colony formation", "setting": "[1]", "value": "effective in killing human colon cancer cells regardless of p53 expression status"},
      {"measurement": "IC50", "setting": "[2]", "value": "~1", "unit": "nM"},
      {"measurement": "Early Deaths", "setting": "[3]; Females, 10 μg/kg/day", "value": 0},
      {"measurement": "Early Deaths", "setting": "[3]; Females, 20 μg/kg/day", "value": 0},
      {"measurement": "Early Deaths", "setting": "[3]; Females, 30 μg/kg/day", "value": 0},
      {"measurement": "Early Deaths", "setting": "[3]; Females, 40 μg/kg/day", "value": 0},
      {"measurement": "Spleen Relative Weight", "setting": "[3]; Females, 14-Day, 20 μg/kg/day", "value": "109% of Control"},
      {"measurement": "Liver Relative Weight", "setting": "[3]; Females, 14-Day, 40 μg/kg/day", "value": "105% of Control"},
      {"measurement": "Kidney Relative Weight", "setting": "[3]; Females, 42-Day, 20 μg/kg/day", "value": "116% of Control"},
      {"measurement": "Kidney Relative Weight", "setting": "[3]; Females, 42-Day, 40 μg/kg/day", "value": "105% of Control"},
      {"measurement": "Early Deaths", "setting": "[3]; Males, 10 μg/kg/day", "value": 0},
      {"measurement": "Early Deaths", "setting": "[3]; Males, 20 μg/kg/day", "value": 7},
      {"measurement": "Early Deaths", "setting": "[3]; Males, 40 μg/kg/day", "value": 15},
      {"measurement": "Kidney Relative Weight", "setting": "[3]; Males, 3-Day, 10 μg/kg/day", "value": "103% of Control"},
      {"measurement": "Kidney Relative Weight", "setting": "[3]; Males, 3-Day, 20 μg/kg/day", "value": "116% of Control"},
      {"measurement": "TBW", "setting": "[3]; Males, 14-Day, 10 μg/kg/day", "value": "107% of Control"},
      {"measurement": "mortality or morbidity", "setting": "[3]; female mice, 10, 20 or 40 μg/kg/day i.v.", "value": "no mortality or morbidity was observed"},
      {"measurement": "NOAEL at 5 days", "setting": "[3]; female, mouse, in vivo, females, read-out: no-observed-adverse-effect level (NOAEL)", "value": 0.04, "unit": "mg/kg/day"},
      {"measurement": "no-observed-effect level (NOEL)", "setting": "[3]; females", "value": 40, "unit": "µg/kg/day"},
      {"measurement": "NOEL", "setting": "[3]; male mice", "value": "No NOEL"},
      {"measurement": "mortality and morbidity", "setting": "[3]; male mice, 20 and 40 μg/kg/day, after the fourth injection", "value": "mortality and morbidity was observed"},
      {"measurement": "Hemolysis Sl, Md, Mk", "setting": "[3]; male mice, early deaths day 4, individual animals (IDs 30xx, 40xx), 30 and 40 μg/kg/day groups, listed as Orsaponin", "value": "Md (6×) and Mk and Sl"},
      {"measurement": "ALK PHOS", "setting": "[3]; [5]", "value": "1896 IU/L and 1746 IU/L and 2290 IU/L and 3302 IU/L and >4500 IU/L and >1500 IU/L (2×) and 2001 IU/L and >2842 IU/L and 3339 IU/L and 4992 IU/L and 4326 IU/L"},
      {"measurement": "ALT", "setting": "[3]; [5]", "value": "1058 IU/L and 486 IU/L and >8800 IU/L (2×) and >4400 IU/L (2×) and 2060 IU/L and >6600 IU/L (2×) and 5642 IU/L and 4950 IU/L and 5596 IU/L"},
      {"measurement": "AST", "setting": "[3]; [5]", "value": "1794 IU/L and 1167 IU/L and >8800 IU/L (3×) and 3306 IU/L and >6600 IU/L (2×) and 4341 IU/L and >4400 IU/L and 5106 IU/L and 5864 IU/L"},
      {"measurement": "Alb", "setting": "[3]; [5]", "value": "4.2 gm/dl and 3 gm/dl and 3.4 gm/dl and 2.4 gm/dl (2×) and 3.8 gm/dl (2×) and 3.3 gm/dl and 3.9 gm/dl and 2.8 gm/dl and 2.7 gm/dl"},
      {"measurement": "CHLORIDE", "setting": "[3]; [5]", "value": "103 mmol/L and 110 mmol/L (3×) and 116 mmol/L and 105 mmol/L and 109 mmol/L and 107 mmol/L"},
      {"measurement": "Glob", "setting": "[3]; [5]", "value": "2.3 gm/dl and 1.8 gm/dl (2×) and 6.6 gm/dl and 1.4 gm/dl (2×) and 1.6 gm/dl and 1.5 gm/dl and 2.1 gm/dl and 1.2 gm/dl and 1 gm/dl"},
      {"measurement": "T. PROTEIN", "setting": "[3]; [5]", "value": "6.5 gm/dl and 4.8 gm/dl (2×) and 10 gm/dl and 3.8 gm/dl and 5.4 gm/dl and 5.6 gm/dl and 6 gm/dl (2×) and 4 gm/dl and 4.1 gm/dl and 3.4 gm/dl"},
      {"measurement": "NOAEL at 5 days", "setting": "[3]; male, mouse, in vivo, males, 5 daily doses, based on pathology, read-out: NOAEL", "value": 0.01, "unit": "mg/kg/day"},
      {"measurement": "compound-related findings", "setting": "[3]; mouse, in vivo", "value": "No Orsaponin-related findings were observed"},
      {"measurement": "interpretation of AST, ALT and total bilirubin", "setting": "[3]; mouse, in vivo", "value": "severe liver disease"},
      {"measurement": "reversibility of hepatocellular lesion", "setting": "[3]; mouse, in vivo", "value": "completely reversible"},
      {"measurement": "IC50", "setting": "[4]", "value": "~0.2", "unit": "nM"}
    ]}
  ]
}
